Results published in PMC10520499, “Next step in the development of mesoprogestins: the preclinical profile of EC313” (Frontiers in Endocrinology, 2023).

Experiments:
[1] = system: human uterine fibroid xenografts; assay: Human uterine fibroid xenografts in NOD-SCID mice; format: in vivo; settings: Part B; 0.01 mg/kg/day s.c.
Method: Fibroids/Leiomyoma are one of the clinical target indications for the development of EC313. But, there are no very reliable pre-clinical models known at present. From all experimental approaches, the transplantation of human fibroid tissue into immunodeficient mice s.c. resembles the clinical situation most closely. UPA served as a reference compound. There were two study parts: A and B. Part A is already published ([2]). Human uterine fibroid samples (2x2x2 mm; weighting roughly 8 mg) were transplanted s.c. into NOD-SCID mice 3 weeks after ovariectomy. Simultaneously, the animals were supplemented s.c. with E2-releasing pellets (0.05 mg E2/90 days release). The treatment period over 60 days (5 treatment days a week) started immediately after transplantation. There was a sham control, an E2 control, two EC313-group, one Ulipristal (UA) group, and a combination of UPA+EC313 (Part A). […] The animals were sacrificed after a treatment period of 60 days. Graft weights were the primary endpoint (parts A and B); histological findings including immunostainings of the grafts were used as secondary endpoints (part A).

Aqueous solubility = format: physicochemical
[2] = system: human uterine fibroid xenografts; design: method as in PMID 31754172; settings: ref [2], cited from earlier work
[3] = system: progesterone receptor (PRA, PRB) in T47D cells; assay: PR nuclear translocation in T47D cells (Western blot); format: cell-based, human; settings: 100 nM, compared to Promegestone, Mifepristone or Asoprisnil
Method: Subsequently, progesterone receptors present in nuclear as well as cytosolic fractions were stained using Western blotting.
[…] (constitutively expressing the progesterone receptor) were treated with 100 nM of EC313 or reference compounds to activate PR. After 6h and after 24h cells were lysed, the nuclear and cytosolic fractions were separated and Western blots of these fractions were prepared.
Blots were stained for PRA and PRB as well as the housekeeping proteins GAPDH (as a marker for the cytosolic fraction) and histone H3 (as a marker for the nuclear fraction). Nuclear and cytoplasmic proteins from […] were extracted after cell stimulation with PR ligands and the nuclear and cytoplasmic fractions were analyzed for PRB and PRA content using Western blotting.

human PR-B receptor = target: T1, human PR-B receptor (Homo sapiens, UniProt P06401); assay: PR-B transactivation (CHO, MMTV-LUC); format: cell-based
T1 sequence (P06401 1-933): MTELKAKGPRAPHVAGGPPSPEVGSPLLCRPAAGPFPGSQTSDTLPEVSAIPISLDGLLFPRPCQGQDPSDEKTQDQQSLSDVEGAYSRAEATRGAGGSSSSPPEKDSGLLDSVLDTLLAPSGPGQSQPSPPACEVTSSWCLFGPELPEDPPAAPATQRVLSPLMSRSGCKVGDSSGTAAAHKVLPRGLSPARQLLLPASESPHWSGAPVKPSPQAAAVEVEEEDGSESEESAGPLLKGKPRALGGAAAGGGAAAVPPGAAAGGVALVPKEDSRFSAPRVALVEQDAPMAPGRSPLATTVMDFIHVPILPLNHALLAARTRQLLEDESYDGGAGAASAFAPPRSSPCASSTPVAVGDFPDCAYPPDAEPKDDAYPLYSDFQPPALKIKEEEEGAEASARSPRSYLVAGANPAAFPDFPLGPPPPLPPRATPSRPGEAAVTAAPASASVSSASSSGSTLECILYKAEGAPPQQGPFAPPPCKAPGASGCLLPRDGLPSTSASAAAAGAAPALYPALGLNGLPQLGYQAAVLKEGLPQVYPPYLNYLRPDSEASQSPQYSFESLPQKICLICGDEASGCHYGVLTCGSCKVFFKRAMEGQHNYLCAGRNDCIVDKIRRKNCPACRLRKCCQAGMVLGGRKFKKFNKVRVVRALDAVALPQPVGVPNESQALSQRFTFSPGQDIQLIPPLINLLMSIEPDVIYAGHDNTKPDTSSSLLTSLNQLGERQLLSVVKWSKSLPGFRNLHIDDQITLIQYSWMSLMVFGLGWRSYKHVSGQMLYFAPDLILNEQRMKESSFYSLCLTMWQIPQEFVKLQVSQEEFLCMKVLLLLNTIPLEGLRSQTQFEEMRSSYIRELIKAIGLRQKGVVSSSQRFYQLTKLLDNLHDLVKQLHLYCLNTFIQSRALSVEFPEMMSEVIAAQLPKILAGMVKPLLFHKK
From the text: The vector pcDNA3.1 coding sequence for the full length of human PRA and PRB (cDNA ORF clone in pcDNA3.1+/C-(K)-DYK) was used as an expression vector for PR isoform A and B, respectively. Vector pGL4.36 coding for the progesterone responsive element MMTV and firefly luciferase reporter vector [luc2P/Hygro] were used as reporter systems (pGL4.36-MMTV/LUC).
A sufficient transactivation signal was achieved using stable transfection for the human PRA and PRB receptors and transient transfection for the MMTV-luciferase reporter gene. Therefore, the first stable transfection with the receptor of interest was performed. Thus, 0.5x10^6 CHO cells per well were plated into 6-well plates in transfection medium w/o antibiotics (RPMI phenol-free, 10% FBS,2mM L-glutamine). When the cells reached 80% confluency, transfection with receptor using FuGENE 6 in Opti-MEM medium was accomplished according to the manufacturer’s instruction. After 48h of transfection, stably transfected cells were cultured in a growth medium containing an antibiotic (G418 500 µg/mL). Only cells with the resistance gene (resistance to G418), which had been transfected together with the DNA for PRA and PRB were able to grow in this medium. Consequently, growing cell clones were selected for further steps as stable transfectants. The CHO cells stably transfected with the expression of PRA or PRB were transiently transfected with promoter MMTV/LUC vectors. For this purpose, cells with a density of 12.5x10^3 per well in a 96-well plate were transfected using transfection reagent FuGENE and Opti-MEM medium, following the manufacturer’s instructions. The recovery of cells lasted 24h and they were then moved into the culture medium and treated for 24h with test compounds.
After 24h incubation of cells with tested compounds, luciferase activity was measured using a VICTOR™ X Multilabel Plate Reader -Perkin Elmer.

C[C@]12C[C@H](c3ccc(-c4ccoc4)cc3)C3=C4CCC(=O)C=C4CC[C@H]3[C@@H]1CC[C@]21OCCC1=C(F)F [EC313]
anti-fibroid activity at very low dose [1]: demonstrated
aqueous solubility (Aqueous solubility): very low aqueous solubility
uterine fibroid markers desmin and collagen ([2]; Part A, 0.1 and 1.0 mg EC313/kg/day): markedly reduced
fibroid xenograft weight ([2]; Part A, 0.1 and 1.0 mg/kg/day s.c., 60 days): reduced the fibroid xenograft weight dose-dependently
levels of ER and PR in grafts (immunohistochemistry) ([2]; Part A, vs control p< 0.001, vs UPA p< 0.01): reduced
E2-induced proliferation in xenograft fibroids ([2]; Part A, vs control, p< 0.0001): blocked significantly
lowest effective dosage, uterine fibroid model ([2]; demonstrated previously): 0.1 mg/kg/day s.c.
receptors retained in the nuclear fraction after 24 hours [3]: retained more receptors in the nuclear fraction
potency relative to Mifepristone (human PR-B receptor; PR-B antagonism): approximately 13%
agonistic activity (human PR-B receptor; PR-B, high nM concentrations): Only marginal agonistic activity
IC50 (human PR-B receptor; PR-B, set of 6 experiments, Promegestone 1.0 nM, read-out: average IC50, antagonism): 2.5 ± 0.7 nM
